Measured values reported in ChEMBL document CHEMBL1201862, “PubChem BioAssay data set” (2004).
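Results reflect a 48-hour exposure of cells in 96-well plates to compound at five concentrations. Abbreviation: GI50, concentration required for 50% inhibition of growth.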 Activity calls are given as the source filed them. No stated cut-off is given here; in the data, active = GI50 up to about 1.1 µM and inactive = higher.

How the values were obtained:
Experiment in all cases: inhibition of tumour cell growth, NCI panel, 48 h
786-0 = test system: 786-0
ACHN = test system: ACHN
HCT-15 = test system: HCT-15
HOP-62 = test system: HOP-62
HOP-92 = test system: HOP-92
MCF7 = test system: MCF7
MDA-MB-231 = test system: MDA-MB-231
MDA-MB-435 = test system: MDA-MB-435
MDA-N = test system: MDA-N
NCI-H226 = test system: NCI-H226
NCI-H460 = test system: NCI-H460
OVCAR-8 = test system: OVCAR-8
RPMI-8226 = test system: RPMI-8226
RXF 393 = test system: RXF 393
SK-MEL-28 = test system: SK-MEL-28
SK-OV-3 = test system: SK-OV-3
SNB-19 = test system: SNB-19
SNB-75 = test system: SNB-75
U-251 = test system: U-251
CAKI-1 = test system: CAKI-1

| Structure (SMILES) | GI50 (786-0) | GI50 (ACHN) | GI50 (HCT-15) [µM] | GI50 (HOP-62) | GI50 (HOP-92) | GI50 (MCF7) | GI50 (MDA-MB-231) | GI50 (MDA-MB-435) | GI50 (MDA-N) | GI50 (NCI-H226) | GI50 (NCI-H460) | GI50 (OVCAR-8) | GI50 (RPMI-8226) | GI50 (RXF 393) | GI50 (SK-MEL-28) | GI50 (SK-OV-3) | GI50 (SNB-19) | GI50 (SNB-75) | GI50 (U-251) | GI50 (CAKI-1) |
| --- | --- | --- | --- | --- | --- | --- | --- | --- | --- | --- | --- | --- | --- | --- | --- | --- | --- | --- | --- | --- |
| C=C1CCC2C(C)(CO)C(O)CCC2(C)C1C/C=C1\C(=O)OCC1O (stereo not given) | 5.4 µM (inactive) | 29 µM (inactive) | 14.6 | 28.2 µM (inactive) | 27.8 µM (inactive) | 15.7 µM (inactive) | 26.4 µM (inactive) | 10.3 µM (inactive) | 9.31 µM (inactive) | 39.8 µM (inactive) | 21.2 µM (inactive) | 10.1 µM (inactive) | 5.42 µM (inactive) | 18.7 µM (inactive) | 13.9 µM (inactive) | 24 µM (inactive) | 54.8 µM (inactive) | 15.4 µM (inactive) | 11.1 µM (inactive) |  |
| CC#CC(O)(C(=O)OC1CCCN(C)C1)C1=CC=CCC1 (stereo not given) | > 100 µM (inactive) | > 100 µM (inactive) | > 100 | > 100 µM (inactive) | > 100 µM (inactive) | > 100 µM (inactive) | > 100 µM (inactive) | > 100 µM (inactive) | > 100 µM (inactive) | > 100 µM (inactive) | > 100 µM (inactive) | > 100 µM (inactive) | > 100 µM (inactive) | > 100 µM (inactive) | > 100 µM (inactive) | > 100 µM (inactive) | > 100 µM (inactive) | > 100 µM (inactive) | > 100 µM (inactive) | > 100 µM (inactive) |
| CC(=O)c1c(C)n(C)c2c1nnc1ccccc12 | 36 µM (inactive) | 34.4 µM (inactive) | 42.1 | 55.2 µM (inactive) | 43.9 µM (inactive) | 26.5 µM (inactive) | 59 µM (inactive) | 61.7 µM (inactive) | 67.9 µM (inactive) | 31.6 µM (inactive) | 25.7 µM (inactive) | 43.5 µM (inactive) | 38.6 µM (inactive) | 40.2 µM (inactive) | > 100 µM (inactive) | 32.8 µM (inactive) | 55.5 µM (inactive) |  | 49.4 µM (inactive) | 35.7 µM (inactive) |
| C=CCC(C(=O)O)c1ccccc1 (stereo not given) | > 100 µM (inactive) | > 100 µM (inactive) | > 100 | > 100 µM (inactive) | > 100 µM (inactive) | > 100 µM (inactive) | > 100 µM (inactive) | > 100 µM (inactive) | > 100 µM (inactive) | > 100 µM (inactive) | > 100 µM (inactive) | > 100 µM (inactive) | > 100 µM (inactive) | > 100 µM (inactive) | > 100 µM (inactive) | > 100 µM (inactive) | > 100 µM (inactive) | > 100 µM (inactive) | > 100 µM (inactive) | > 100 µM (inactive) |
| O=C(CC(=O)Nc1ccccc1)NNC(Sc1ccccc1)c1cc(/N=N/c2ccc(Br)cc2)ccc1O (stereo not given) | 0.802 µM (active) | 2.47 µM (inactive) | 0.678 | 3.08 µM (inactive) | 4.51 µM (inactive) | 1.78 µM (inactive) | 2.24 µM (inactive) | 4.28 µM (inactive) | 2.41 µM (inactive) | 0.444 µM (active) | 0.773 µM (active) |  | 4.2 µM (inactive) | 2.37 µM (inactive) | 2.92 µM (inactive) | 4.21 µM (inactive) | > 10 µM (inactive) | 3.15 µM (inactive) | 6.31 µM (inactive) | 4.82 µM (inactive) |
| COc1ccc(C(CC(=O)C(C)(C)CN2CCCCC2)SCCS(=O)(=O)O)cc1 (stereo not given) | 18.3 µM (inactive) | 33.2 µM (inactive) | 34.2 | 77.8 µM (inactive) | 17.8 µM (inactive) | 28.7 µM (inactive) | 27.5 µM (inactive) | 18.3 µM (inactive) | 29.6 µM (inactive) | 21.9 µM (inactive) | 22.6 µM (inactive) | 33.3 µM (inactive) | 24.9 µM (inactive) | 40.4 µM (inactive) |  | 60.7 µM (inactive) | 83.9 µM (inactive) | 22.3 µM (inactive) | 62.1 µM (inactive) | 34.9 µM (inactive) |
| O=C(NC(Nc1ccc(F)c(Cl)c1)(C(F)(F)F)C(F)(F)F)OCc1ccccc1 | 18.3 µM (inactive) | 17.7 µM (inactive) | 22.4 | 30.3 µM (inactive) | 23.2 µM (inactive) | 19.4 µM (inactive) | 11.7 µM (inactive) | 32.1 µM (inactive) | 19.7 µM (inactive) | > 100 µM (inactive) | 85.1 µM (inactive) | 35 µM (inactive) | 20.4 µM (inactive) | 43.3 µM (inactive) | > 100 µM (inactive) | 26 µM (inactive) | 20.9 µM (inactive) | 36.9 µM (inactive) | 29.2 µM (inactive) | 34.6 µM (inactive) |
| O=C1/C(=C\c2ccccc2)C(NC2CCCCC2)c2ccccc21 (stereo not given) | 0.828 µM (active) | 0.923 µM (active) | 2.15 | 2.46 µM (inactive) | 1.96 µM (inactive) | 1.37 µM (inactive) | 2.23 µM (inactive) | 1.52 µM (inactive) | 1.43 µM (inactive) | 6.24 µM (inactive) | 2.71 µM (inactive) | 2.12 µM (inactive) | 0.387 µM (active) | 1.56 µM (inactive) | 2.54 µM (inactive) | 14 µM (inactive) | 10.5 µM (inactive) | 2.17 µM (inactive) | 1.73 µM (inactive) | 1.48 µM (inactive) |
| O=[N+]([O-])c1cc(Cl)ccc1S(=O)(=O)N1CCCc2cc(Cl)ccc21 | > 100 µM (inactive) | > 100 µM (inactive) | 33.7 | > 100 µM (inactive) | 30.8 µM (inactive) | 45.8 µM (inactive) | > 100 µM (inactive) | 17.8 µM (inactive) | 22.5 µM (inactive) | 82.4 µM (inactive) | 30.5 µM (inactive) | > 100 µM (inactive) | 20.6 µM (inactive) | 51.2 µM (inactive) | > 100 µM (inactive) | 59.6 µM (inactive) | > 100 µM (inactive) | 18.7 µM (inactive) |  | 45.2 µM (inactive) |
| COC(=O)c1c(O)ccc2c1c1c(n2CCc2ccccc2)C(=O)c2ccccc2C1=O | 16.7 µM (inactive) | 11.9 µM (inactive) | 9.35 | 21.4 µM (inactive) | 16.3 µM (inactive) | 9.02 µM (inactive) | 14.6 µM (inactive) | 7.03 µM (inactive) | 10.2 µM (inactive) | 14.6 µM (inactive) | 4.11 µM (inactive) | 8.18 µM (inactive) | 7.03 µM (inactive) | 13.3 µM (inactive) | 16 µM (inactive) | 18.3 µM (inactive) | 17.5 µM (inactive) |  | 12.7 µM (inactive) | 13.1 µM (inactive) |
| CCOC(=O)/C=C/C(Br)=C(Br)/C=C/C(=O)OCC | 3.01 µM (inactive) | 12.3 µM (inactive) | 4.92 | 17.9 µM (inactive) | 19.1 µM (inactive) | 7.93 µM (inactive) | 16.3 µM (inactive) | 7.13 µM (inactive) | 10.3 µM (inactive) | 29.5 µM (inactive) | 33.9 µM (inactive) | 4.79 µM (inactive) | 2.59 µM (inactive) | 8.93 µM (inactive) | 12.4 µM (inactive) | 20.3 µM (inactive) | 17.5 µM (inactive) | 12.4 µM (inactive) | 14.6 µM (inactive) | 3.84 µM (inactive) |
| Cc1cc(C)nc(NS(=O)(=O)c2ccc(NC(=O)c3cc([N+](=O)[O-])cc([N+](=O)[O-])c3)cc2)n1 | > 100 µM (inactive) |  | > 100 | > 100 µM (inactive) | 42.5 µM (inactive) | 55 µM (inactive) | > 100 µM (inactive) | > 100 µM (inactive) | > 100 µM (inactive) | > 100 µM (inactive) | 86.7 µM (inactive) | > 100 µM (inactive) | 57.5 µM (inactive) | > 100 µM (inactive) | 99.8 µM (inactive) | > 100 µM (inactive) | > 100 µM (inactive) | 15.6 µM (inactive) | 84.3 µM (inactive) | > 100 µM (inactive) |
| Clc1ccc(OCc2nnc(CCCCCCCCc3nnc(COc4ccc(Cl)cc4Cl)o3)o2)c(Cl)c1 | 47.1 µM (inactive) | > 100 µM (inactive) | 97.5 |  | 41.1 µM (inactive) | 42.3 µM (inactive) | > 100 µM (inactive) | > 100 µM (inactive) | > 100 µM (inactive) | > 100 µM (inactive) | 79.6 µM (inactive) |  | 58.9 µM (inactive) | > 100 µM (inactive) | > 100 µM (inactive) | > 100 µM (inactive) | 69.3 µM (inactive) | > 100 µM (inactive) | > 100 µM (inactive) | 24.6 µM (inactive) |
| O=C1/C(=C/c2ccc(Cl)cc2)N=C(c2ccccc2)N1c1ccc(S(=O)(=O)Nc2nccs2)cc1 | 46 µM (inactive) | 62.5 µM (inactive) | 37.5 | 62.2 µM (inactive) | 28.9 µM (inactive) | 26.1 µM (inactive) | 18.9 µM (inactive) | 23.6 µM (inactive) | 26 µM (inactive) | 52.1 µM (inactive) | 57.1 µM (inactive) |  | 17.4 µM (inactive) | 33.4 µM (inactive) | 30.4 µM (inactive) | > 100 µM (inactive) | 40.7 µM (inactive) | 39.5 µM (inactive) | 36.2 µM (inactive) | > 100 µM (inactive) |
| CCN(CC)CCNc1ccc2nc(C)n3c4ccc(OC)cc4c(=O)c1c23 | 0.558 µM (active) | 0.367 µM (active) | 1.22 | 4.06 µM (inactive) | 5.92 µM (inactive) | 0.354 µM (active) | 0.423 µM (active) | 11.2 µM (inactive) | 1.41 µM (inactive) | 0.316 µM (active) | 0.538 µM (active) | 0.575 µM (active) | 1.36 µM (inactive) | 4.07 µM (inactive) | 10.4 µM (inactive) | 5.48 µM (inactive) | 1.03 µM (active) | 4.68 µM (inactive) | 4.39 µM (inactive) | 1.86 µM (inactive) |
